Test results published in patent publication US5985908A, “MCBI analogs of CC-1065 and the duocarmycins” (The Scripps Research Institute, priority 1998, dated 1999).

Key:
[1] = test system: w794 5'-AATTA high affinity site; test: Relative rate of w794 alkylation at the 5'-AATTA high-affinity site; format: biochemical, SV40; conditions: 10^-6 M; for relative rate of DNA alkylation k(254):k(CBI-TMI):k(2): 4° C., 0-48 hours
Protocol: FIG. 15 illustrates a plot of percent integrated optical density (% IOD) versus time established through autoradiography of 5'-^32 P and labeled DNA and used to monitor the relative rate of w794 alkylation at the 5'-AATTA high-affinity site for 1, 254, 258, (+)-CBI-TMI and (+)-DSA-indole2.
Representative of this difficulty in detecting distinguishing relative rates for the three classes of agents, a similar rate comparison of (+)-DSA-indole2 and (+)-MCBI-indole2 (258) conducted at 25° C. […] In sharp contrast, all three kinetically alkylate DNA much faster than the corresponding CPI-based agent (10-50×) where the distinctions are much more pronounced and easily experimentally distinguished.

[2] = test system: w794 DNA (SV40 DNA fragment, 144 bp); test: DNA alkylation, thermally-induced strand cleavage of w794 DNA; format: biochemical; conditions: for selectivity and efficiency of DNA alkylation, natural enantiomers compared: 25° C., 24 hours, 254 vs 2, 266 vs 1; for concentration of detectable DNA alkylation, natural enantiomers: w794, 25° C., 24 hours (FIG. 17); for concentration of detectable DNA alkylation, unnatural enantiomers: 72 hours (FIG. 13)
Protocol: FIG. 13 illustrates thermally-induced strand cleavage of double-stranded DNA (SV40 DNA fragment, 144 bp, nucleotide no. 5238-138, clone w794) after 72 hours incubation of agent-DNA at 37° C. followed by removal of unbound agent and 30 minutes incubation at 100° C.; 8% denaturing PAGE and autoradiography. Lane 1, control DNA; lanes 2-4, (-)-MCBI-TMI (254, 1×10^-5 to 1×10^-7 M); lanes 5-7, (-)-duocarmycin SA (2, 1×10^-5 to 1×10^-7 M); lanes 8-11, Sanger G, C, A and T reactions; lanes 12-14, (-)-CC-1065 (1, 1×10^-5 to 1×10^-7 M); lanes 15-17, (-)-MCBI-CDPI2 (266, 1×10^-5 to 1×10^-7 M); lanes 18-20, (-)-MCBI-CDPI1 (262, 1×10^-5 to 1×10^-7 M); lanes 21-23 (-)-MCBI-indole2 (258, 1×10^-5 to 1×10^-7 M).
As indicated, the DNA-agent incubation was conducted at 37° C. for 24 or 48 hours, followed by removal of unbound agent and 30 minutes incubation at 100° C.; 8% denaturing PAGE and autoradiography.
FIG. 17 illustrates thermally-induced strand cleavage of double-stranded DNA (SV40 DNA fragment, 144 bp, nucleotide no. 5238-138, clone w794) after 24 hours incubation of agent-DNA at 25° C. followed by removal of unbound agent and 30 minutes incubation at 100° C; 8% denaturing PAGE and autoradiography. Lane 1, control DNA; lanes 2-4, (+)-duocarmycin SA (2, 1×10^-5 to 1×10^-7 M); lanes 5-7, (+)-MCBI-TMI (254, 1×10^-5 to 1×10^-7 M); lanes 8-11, Sanger G, C, A and T reactions; lanes 12-14, (+)-CC-1065 (1, 1×10^-5 to 1×10^-7 M); lanes 15-17, (+)-MCBI-indole2 (258, 1×10^-5 to 1×10^-7 M); lanes 18-20, (+)-MCBI-CDPI2 (266, 1×10^-5 to 1×10^-7 M).
(§1) The DNA alkylation properties of the agents were examined within four 150 base-pair segments of duplex DNA for which comparative results are available for related agents. Four clones of phage M13mp10 were selected for study and contain the SV40 nucleosomal DNA inserts w794 (nucleotide no. 5238-138) and its complement w836 (nucleotide no. 5189-91) and c988 (nucleotide no. 4359-4210) and its complement c820 (nucleotide no. 4201-4356). The alkylation site identification and the assessment of the relative selectivity among the available sites were obtained by thermally-induced strand cleavage of the singly 5'end-labeled duplex DNA after exposure to the agents. Following treatment of the end-labeled duplex DNA with a range of agent concentrations, the unbound agent was removed by EtOH precipitation of the DNA. Redissolution of the DNA in aqueous buffer, thermolysis (100° C., 30 minutes) to induce strand cleavage at the sites of DNA alkylation, denaturing high resolution polyacrylamide gel electrophoresis (PAGE) adjacent to Sanger dideoxynucleotide sequencing standards, and autoradiography led to identification of the DNA cleavage and alkylation sites. The full details of this procedure have been disclosed and discussed elsewhere (10). The DNA alkylation reaction selectivities observed under the incubation conditions of 25° C. (24 hours) for the agents detailed herein have proven identical to the alkylation selectivities observed with shorter or extended reaction periods or when the reactions were conducted at different temperatures (37 or 4° C., 0.5-7 days). As discussed below, the rates and efficiencies but not final relative efficiencies of DNA alkylation were altered by changing the reaction temperatures.

[3] = test system: duplex DNA (w794, w836, c988, c820); test: DNA alkylation selectivity within four 150 base-pair segments of duplex DNA; format: biochemical, SV40
Excerpt: as §1

L1210 = test: In vitro cytotoxic activity; format: cell-based
[4] = test system: w794 DNA (SV40 DNA fragment, 144 bp); conditions: cited from earlier work
[5] = Solvolysis reactivity (UV), aqueous buffer-CH3OH; format: physicochemical
Protocol: The solvolysis was followed spectrophotometrically by UV with the disappearance of the long-wavelength absorption band of the MCBI chromophore ([…]) and with the appearance of a short-wavelength absorption band (266 nm) attributable to seco-N-BOC-MCBI (FIG. 9).
N-BOC-MCBI (238, 0.1 mg) was dissolved in CH3 OH (1.5 mL) and mixed with pH 3 aqueous buffer (1.5 mL). The buffer contained 4:1:20 (v:v:v) 0.1 M citric acid, 0.2 M Na2 HPO4, and H2 O, respectively. The solvolysis solution was sealed and kept at 25° C. protected from light. The UV spectrum was measured at regular intervals every 2 hours during the first day, every 12 hours for another week, and every 24 hours for an additional week. The decrease in the long-wavelength absorption at 324 nm and the increase in the short-wavelength absorption at 266 nm were monitored, FIG. 1.
Similarly, MCBI (240, 0.1 mg) was dissolved in CH3 OH (1.5 mL) and mixed with […] (1.5 mL). The solvolysis solution was sealed and stirred at 25° C. in the dark. The UV spectrum was recorded every 24 hours for two months. The decrease in the long-wavelength absorption at 340 nm and the increase in absorption at 268 nm were monitored, FIG. 1.

[6] = Solvolysis reactivity (UV), aqueous buffer-CH3OH; format: physicochemical; conditions: pH 7, 1:1 H2O-CH3OH

COC(=O)c1cc2c([nH]1)C(=O)C=C1N(C(=O)c3cc4cc(OC)c(OC)c(OC)c4[nH]3)CC3CC123 (single isomer, unassigned; (+)) [(+)-duocarmycin SA, reference compound]
relative rate of DNA alkylation k(254):k(CBI-TMI):k(2) [1]: 0.9
selectivity and efficiency of DNA alkylation, natural enantiomers compared [2]: indistinguishable
concentration of detectable DNA alkylation, natural enantiomers [2]: 10^-6 to 10^-7 M
concentration of detectable DNA alkylation, unnatural enantiomers ([2]; w794, 37° C.): 10^-5 M
AT-rich alkylation selectivity, size of site, natural enantiomers [3]: 3.5 base-pair

COc1cc2cc(C(=O)N3C[C@H]4C[C@@]45C3=CC(=O)c3ccccc35)[nH]c2c(OC)c1OC [(+)-CBI-TMI]
relative rate of DNA alkylation k(254):k(CBI-TMI):k(2) [1]: 1.0

COC(=O)c1cc2c([nH]1)C(=O)C=C1N(C(=O)c3cc4cc(NC(=O)c5cc6ccccc6[nH]5)ccc4[nH]3)C[C@H]3C[C@]123 [(+)-DSA-indole2]
relative rate k(DSA-indole2)/k(MCBI-indole2) ([1]; 25° C., 0-24 hours): 1.05

COc1ccc2c(c1)[C@@]13C[C@@H]1CN(C(=O)c1cc4cc(OC)c(OC)c(OC)c4[nH]1)C3=CC2=O [(+)-MCBI-TMI]
relative rate of DNA alkylation k(254):k(CBI-TMI):k(2) [1]: 1.8
selectivity and efficiency of DNA alkylation, natural enantiomers compared [2]: indistinguishable
concentration of detectable DNA alkylation, natural enantiomers [2]: 10^-6 to 10^-7 M
cytotoxic potency of natural enantiomer relative to unnatural enantiomer (L1210; fold, natural more potent than unnatural): 50 ×

CC(C)(C)OC(=O)N1C[C@H]2C[C@@]23C1=CC(=O)c1ccccc13 [(+)-N-BOC-CBI]
relative efficiency of DNA alkylation, natural/unnatural enantiomer (earlier agent) ([4]; (+)-N-BOC-CBI/ent-(-)-N-BOC-CBI): 5-10 ×

COc1cc2cc(C(=O)N3C[C@@H]4C[C@]45C3=CC(=O)c3ccccc35)[nH]c2c(OC)c1OC [(-)-CBI-TMI]
DNA alkylation distinction between (-)-CBI-TMI and ent-(-)-duocarmycin SA ([4]; prior comparison): 10 ×

COc1ccc2c(c1)C13CC1CN(C(=O)OC(C)(C)C)C3=CC2=O (stereo not drawn) [Compound 238, N-(tert-Butyloxycarbonyl)-7-methoxy-1,2,9,9a-tetrahydrocyclopropa[c]benz[e]indol-4-one]
acceleration of rate of solvolysis by C7 methoxy group vs. corresponding CBI agent ([5]; acid-catalyzed solvolysis, pH 3): 1.6 ×
half-life relative to parent agent N-BOC-CBI (4) ([5]; pH 3): 0.6 times
solvolysis rate constant k ([5]; pH 3, 50% CH3OH-buffer, 25° C.): 2.41e-06 s⁻¹
half-life ([5]; pH 3, 50% CH3OH-buffer, 25° C., read-out: solvolysis half-life t1/2 (converted)): 3.33 days
evidence of solvolysis at pH 7 [6]: did not show evidence of solvolysis
alkylation selectivity of N-BOC-MCBI ([2]; both enantiomers, two base-pair AT-rich selectivity): 5'-AA>5'-TA
DNA alkylation efficiency relative to 257-266 ([2]; fold less efficient, both enantiomers): 10^4 ×
concentration of detectable DNA alkylation, two enantiomers of N-BOC-MCBI ([2]; w794, 37° C., 24-48 hours (FIG. 16)): 10^-2 to 10^-3 M

COc1ccc2c(c1)C13CC1CN(C(=O)c1cc4cc(OC)c(OC)c(OC)c4[nH]1)C3=CC2=O (stereo not drawn) [Compound 254]
concentration of detectable DNA alkylation, unnatural enantiomers ([2]; w794, 37° C.): 10^-5 M
AT-rich alkylation selectivity, size of site, natural enantiomers [3]: 3.5 base-pair
enantiomer distinction (in words) (L1210; natural vs unnatural enantiomer, listed as MCBI-TMI): analogous distinctions but somewhat smaller than those observed with CBI-TMI
